Assay results reported in patent US8236854B2, “Lipid-improving agent and composition containing lipid-improving agent” (Suntory Holdings Limited, priority 2003, dated 2012).
Marks after values point to notes of the source that are not given here.

Key:
Type in all cases: in vivo, rat
Male rats of SD strain [1] = experiment: Serum lipid lowering action of structured lipids in high-fat food, two weeks (Example 6); conditions: High-TG Food (20% fat) with 7.5% structured lipid, 2 weeks
Source text: Influence of arachidonic acid chemically synthesized in Example 2 on serum lipid lowering action of the constituting fatty acid was investigated in a high-fat foods.
Male rats of SD strain of 5 weeks age were divided into eight groups each comprising five rats, acclimatized for one week with a standard solid feed and ingested for two weeks with the experimental food as shown in Table 7 and Table 8 (normal, high-TG, 7.5% PPP, 7.5% PAP, 7.5% PPA, 7.5% 8P8, 7.5% 8A8 and 7.5% 88A). Incidentally, the condition for a high-fat food was that the rate of fat/oil in the feed was made 20%, beef tallow abundant in saturated fatty acid was used as a base and 2% of corn oil were compounded to avoid the deficiency of essential fatty acids. In the control group, an experimental food (high-TG food, 20% fat/oil food) compounded with 18% of […] (20% as a result of addition of 2% of corn oil) was used.

Male rats of SD strain [2] = experiment: Ingestion of experimental food with 10% structured lipid for two weeks: body weight, liver weight, serum lipid concentration (Example 5); conditions: 10% structured lipid in experimental food, 2 weeks
Source text: (§1) Influence of the structured lipid where arachidonic acid chemically synthesized in Example 2 as a constituting fatty acid on expression of lipid metabolism-related gene was investigated using rats.
(§2) Male rats of SD strain of 5 weeks age were divided into four groups each comprising five rats, acclimatized for one week with a standard solid feed and ingested for two weeks with an experimental food (10% PPA and 10% PAP; Table 5) compounded with 10% of arachidonic acid-containing structured lipid (PPA or PAP). In the control group, an experimental food (10% PPP) compounded with 10% of PPP was used. In ingestion of the food, a pair-feeding was conducted and body weight was measured every day.

[3] = system: target gene of PPAR of jejunum; experiment: Influence of structured lipid on expression of target gene of PPAR of jejunum (Example 5); conditions: rats, 10% structured lipid food, compared with PPP food control group
Source text: as §1, §2
Influence of structured lipid on expression of target gene of PPAR of jejunum is shown (FIG. 4). From PPA, each one molecule of palmitic acid and arachidonic acid is dissociated and absorbed by the action of pancreatic lipase specific to 1,3-positions and arachidonic acid having a particularly strong PPAR ligand activity acts as a PPARα ligand in small intestine and, therefore, expressed amount of target gene of PPAR increased in a group of 10% PPA food as compared with a PPP food group which is a control group. […]

PPARα mRNA of liver = experiment: Influence of structured lipid on liver PPARα mRNA expression (Example 5); conditions: rats, 10% PAP food, 2 weeks
Source text: as §1, §2
Two molecules of palmitic acid and one molecule of 2-AG incorporated into epidermal cells of small intestine are reconstructed to a triglyceride(s) (in that case, although there is a possibility of bonding of other inherent fatty acids existing in the epidermal cells of the small intestine to 1,3-positions, arachidonic acid bonded to 2-position is retained), incorporated into chylomicron, transferred to peripheral tissues together with secretion of lymph and blood flow and finally incorporated into liver.

Structure (SMILES)	Serum Total Cholesterol Concn (Male rats of SD strain [1])	Serum Triglyceride(s) Concn (Male rats of SD strain [1])	Serum Total Cholesterol Concn (Male rats of SD strain [2])	Serum Triglyceride(s) Concn (Male rats of SD strain [2])	Expressed amount of target gene of PPAR in jejunum [3]	Expressed amount of PPARα mRNA of liver (PPARα mRNA of liver)
CCCCC/C=C\C/C=C\C/C=C\C/C=C\CCCC(=O)OC(COC(=O)CCCCCCC)COC(=O)CCCCCCC [8A8, 1,3-dioctanoyl-2-arachidonoyl glyceride]	85.6 ± 2.5^b μmol/dl	63.3 ± 4.1^a μmol/dl				
CCCCCCCCCCCCCCCC(=O)OC(COC(=O)CCCCCCC)COC(=O)CCCCCCC [8P8, 1,3-capryloyl-2-palmitoyl-glyceride, reference compound]	99.7 ± 4.2^b μmol/dl	101.8 ± 5.3^b μmol/dl				
CCCCCCCCCCCCCCCC(=O)OCC(COC(=O)CCCCCCCCCCCCCCC)OC(=O)CCCCCCCCCCCCCCC [PPP, reference compound]	104.3 ± 5.9^b μmol/dl	109.2 ± 6.8^b μmol/dl	201 ± 9.2^a μmol/dl	316 ± 64.3^b μmol/dl		
CCCCC/C=C\C/C=C\C/C=C\C/C=C\CCCC(=O)OCC(COC(=O)CCCCCCCCCCCCCCC)OC(=O)CCCCCCCCCCCCCCC (centres unmarked) [PPA, 1(3),2-dipalmitoyl-3(1)-arachidonoyl glyceride]	92.4 ± 4.9^a μmol/dl	93.1 ± 1.3^a μmol/dl	150 ± 16.6^b μmol/dl	173 ± 6.6^b μmol/dl	increased	
CCCCC/C=C\C/C=C\C/C=C\C/C=C\CCCC(=O)OCC(COC(=O)CCCCCCC)OC(=O)CCCCCCC (centres unmarked) [88A, 1(3),2-dioctanoyl-3(1)-arachidonoyl glyceride]	92.9 ± 2.9^a μmol/dl	83.1 ± 3.6^a μmol/dl				
CCCCC/C=C\C/C=C\C/C=C\C/C=C\CCCC(=O)OC(COC(=O)CCCCCCCCCCCCCCC)COC(=O)CCCCCCCCCCCCCCC [PAP, 1,3-dipalmitoyl-2-arachidonoyl glyceride]	91.7 ± 3.3^a μmol/dl	80.4 ± 3.9^a μmol/dl	178 ± 15.3^ab μmol/dl	174 ± 7.5^b μmol/dl		significantly increased
